This note sets out measurements from PubChem BioAssay (NCI).

Structures are written as SMILES.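 These data come from cells grown in 96-well plates and exposed to compound for 48 hours at five concentrations. TGI: concentration producing complete growth inhibition.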 Bounds are passed on as bounds.

The test system of one assay is SF-268 CNS. As to the kind of experiment: NCI anticancer screen, dose series, 48 h.
`COc1ccc(/C(=C/n2ccnc2)C(=O)c2ccc(OC)c(OC)c2)cc1` returned a TGI of over 100 µM.

In turn, `Clc1cc(N/N=C(/c2ccccc2)c2ncccn2)ncn1` gave a TGI of over 100 µM.

Molecule `O=C1CC2(C[C@@H]3CCCCCCCCC[C@@H](C3)C2)N1` (some centres not stated) showed a TGI of 39.8 µM.

Molecule `Cc1c(S(=O)(=O)c2ccccc2)c(N)n(Cc2ccccc2)c1C` returned a TGI of over 100 µM.

As for `CCCN=C1CC(C)Nc2ccccc2N1` (configuration not stated), the TGI was over 100 µM.

In turn, `CC(C)C(Sc1nc(-c2ccccc2)c(-c2ccccc2)[nH]1)C(=O)NNC(=S)Nc1ccccc1` (configuration not stated) yielded a TGI of 46.5 µM.

For the molecule `COC1O[C@H]2CCN(C(=O)OCc3ccccc3)[C@H]2[C@H]1OCc1ccccc1` (some centres not stated), the TGI was over 100 µM.

Molecule `COc1ccc(C2C(Cl)C(=O)N2NC(=O)c2ccc(NC(C)=O)cc2)cc1` (configuration not stated) came in with a TGI of over 100 µM.

`c1ccc(C[P+]2(c3ccccc3)c3ccccc3-c3ccccc32)cc1` came in with a TGI of over 100 µM.

In the case of `Cc1c(Cl)cccc1NC(=O)C(=O)C1C(=O)CC(C)(C)CC1=O`, the TGI is over 100 µM.

For the molecule `C=CCN(CC=C)Cn1c(=S)sc2ccccc21`, the TGI is over 100 µM.

On to `O=C1O[C@@H](c2ccccc2)C[C@@H]1CN1CCOCC1`, for which the TGI is over 100 µM.

`COc1ccc2nc(-c3ccc(OCc4ccccc4)cc3)ccc2c1` gave a TGI of over 100 µM.

For `N#C/C(=C\NC(=S)Nc1ccc(S(=O)(=O)Nc2ccccn2)cc1)C(N)=O`, the TGI was over 100 µM.

With `COC1(C)CC2N(C(=O)c3ccccc3)N=C(c3ccccc3)CC2(C)O1` (configuration not stated), the TGI is over 100 µM.

The molecule `Cc1c(Cl)ccc2c(=O)c3cccc(CC(=O)O)c3oc12` came in with a TGI of over 100 µM.

Turning to `Nc1ccccc1Nc1ccccc1C(=O)[O-].Nc1ccccc1Nc1ccccc1C(=O)[O-].[Cu+2]`, the TGI was over 100 µM.

Take `Cc1ccccc1C1OC1C(=O)c1ccccc1N` (configuration not stated): the TGI is over 100 µM.

For `CCOC(=O)C(OCC1CC=CCC1)Sc1ccccc1` (configuration not stated), the TGI was over 100 µM.

Molecule `O=C(NS(=O)(=O)Nc1ccc(Cl)cc1)OCc1ccc(Cl)cc1Cl` yielded a TGI of 20.6 µM.

In a further assay the test system is HOP-62 NSCLC. As to the kind of experiment: NCI anticancer screen, dose series, 48 h.
The molecule `Nc1nc2ncc(SCc3ccc(C(=O)NC(CCC(=O)O)C(=O)O)cc3)cc2c(=O)[nH]1` (configuration not stated) returned a TGI of over 100 µM.

`CC(C)CC(N)C(=O)OCN1C(=O)C2C3C=CC(C2C1=O)C1C2C(=O)N(COC(=O)C(N)CC(C)C)C(=O)C2C31` (configuration not stated): the TGI was over 100 µM.

Molecule `C[N+](C)(C)CC(=O)N/N=c1\cc(C(=O)Nc2ccc(N=O)cc2C#N)oc2cc(O)ccc12` came in with a TGI of over 100 µM.

As for `N#CCCN(c1ccc(C=Nc2cccc([N+](=O)[O-])c2)cc1)S(=O)(=O)c1ccccc1`, the TGI was over 100 µM.

As to `CC1(C)CC2(C)CC1CC2O` (configuration not stated), the TGI was over 100 µM.

`COc1ccc(/C(=C/n2ccnc2)C(=O)c2ccc(OC)c(OC)c2)cc1` gave a TGI of over 100 µM.

Molecule `Clc1cc(N/N=C(/c2ccccc2)c2ncccn2)ncn1` registered a TGI of 59.3 µM.

For the molecule `O=C1CC2(C[C@@H]3CCCCCCCCC[C@@H](C3)C2)N1` (some centres not stated), the TGI came out at 32.8 µM.

In turn, `CCCN=C1CC(C)Nc2ccccc2N1` (configuration not stated) yielded a TGI of over 100 µM.

Turning to `CC(C)C(Sc1nc(-c2ccccc2)c(-c2ccccc2)[nH]1)C(=O)NNC(=S)Nc1ccccc1` (configuration not stated), the TGI came to 39.8 µM.

`COC1O[C@H]2CCN(C(=O)OCc3ccccc3)[C@H]2[C@H]1OCc1ccccc1` (some centres not stated): the TGI is over 100 µM.

As for `COc1ccc(C2C(Cl)C(=O)N2NC(=O)c2ccc(NC(C)=O)cc2)cc1` (configuration not stated), the TGI is over 100 µM.

`c1ccc(C[P+]2(c3ccccc3)c3ccccc3-c3ccccc32)cc1` gave a TGI of over 100 µM.

On to `Cc1c(Cl)cccc1NC(=O)C(=O)C1C(=O)CC(C)(C)CC1=O`, for which the TGI was over 100 µM.

`C=CCN(CC=C)Cn1c(=S)sc2ccccc21` showed a TGI of over 100 µM.

For `O=C1O[C@@H](c2ccccc2)C[C@@H]1CN1CCOCC1`, the TGI is over 100 µM.

Take `COc1ccc2nc(-c3ccc(OCc4ccccc4)cc3)ccc2c1`: the TGI is over 100 µM.

`N#C/C(=C\NC(=S)Nc1ccc(S(=O)(=O)Nc2ccccn2)cc1)C(N)=O` returned a TGI of over 100 µM.

Turning to `COC1(C)CC2N(C(=O)c3ccccc3)N=C(c3ccccc3)CC2(C)O1` (configuration not stated), the TGI is over 100 µM.

In turn, `Cc1c(Cl)ccc2c(=O)c3cccc(CC(=O)O)c3oc12` yielded a TGI of over 100 µM.

`Nc1ccccc1Nc1ccccc1C(=O)[O-].Nc1ccccc1Nc1ccccc1C(=O)[O-].[Cu+2]` displayed a TGI of over 100 µM.

`CCOC(=O)C(OCC1CC=CCC1)Sc1ccccc1` (configuration not stated): the TGI was over 100 µM.

The molecule `O=C(NS(=O)(=O)Nc1ccc(Cl)cc1)OCc1ccc(Cl)cc1Cl` yielded a TGI of over 100 µM.

The subject of the next assay is OVCAR-3 ovarian. As to the kind of experiment: NCI anticancer screen, dose series, 48 h.
In turn, `Nc1nc2ncc(SCc3ccc(C(=O)NC(CCC(=O)O)C(=O)O)cc3)cc2c(=O)[nH]1` (configuration not stated) yielded a TGI of over 100 µM.

As for `CC(C)CC(N)C(=O)OCN1C(=O)C2C3C=CC(C2C1=O)C1C2C(=O)N(COC(=O)C(N)CC(C)C)C(=O)C2C31` (configuration not stated), the TGI is over 100 µM.

`COC(=O)c1cc(CC(C)C)c2c(c1)[nH]c1ccccc12` had a TGI of over 100 µM.

`C[N+](C)(C)CC(=O)N/N=c1\cc(C(=O)Nc2ccc(N=O)cc2C#N)oc2cc(O)ccc12` came in with a TGI of over 100 µM.

In the case of `N#CCCN(c1ccc(C=Nc2cccc([N+](=O)[O-])c2)cc1)S(=O)(=O)c1ccccc1`, the TGI is over 100 µM.

`CC1(C)CC2(C)CC1CC2O` (configuration not stated) displayed a TGI of over 100 µM.

Regarding `COc1ccc(/C(=C/n2ccnc2)C(=O)c2ccc(OC)c(OC)c2)cc1`, the TGI was over 100 µM.

`Clc1cc(N/N=C(/c2ccccc2)c2ncccn2)ncn1` displayed a TGI of 76 µM.

On to `Cc1c(S(=O)(=O)c2ccccc2)c(N)n(Cc2ccccc2)c1C`, for which the TGI is over 100 µM.

`CCCN=C1CC(C)Nc2ccccc2N1` (configuration not stated) returned a TGI of over 100 µM.

For the molecule `CC(C)C(Sc1nc(-c2ccccc2)c(-c2ccccc2)[nH]1)C(=O)NNC(=S)Nc1ccccc1` (configuration not stated), the TGI is 29 µM.

The molecule `COC1O[C@H]2CCN(C(=O)OCc3ccccc3)[C@H]2[C@H]1OCc1ccccc1` (some centres not stated) yielded a TGI of over 100 µM.

`COc1ccc(C2C(Cl)C(=O)N2NC(=O)c2ccc(NC(C)=O)cc2)cc1` (configuration not stated): the TGI is over 100 µM.

The molecule `c1ccc(C[P+]2(c3ccccc3)c3ccccc3-c3ccccc32)cc1` showed a TGI of over 100 µM.

For the molecule `Cc1c(Cl)cccc1NC(=O)C(=O)C1C(=O)CC(C)(C)CC1=O`, the TGI was over 100 µM.

`C=CCN(CC=C)Cn1c(=S)sc2ccccc21` displayed a TGI of over 100 µM.

As to `O=C1O[C@@H](c2ccccc2)C[C@@H]1CN1CCOCC1`, the TGI was over 100 µM.

`COc1ccc2nc(-c3ccc(OCc4ccccc4)cc3)ccc2c1` returned a TGI of over 100 µM.

For the molecule `N#C/C(=C\NC(=S)Nc1ccc(S(=O)(=O)Nc2ccccn2)cc1)C(N)=O`, the TGI was over 100 µM.

As for `COC1(C)CC2N(C(=O)c3ccccc3)N=C(c3ccccc3)CC2(C)O1` (configuration not stated), the TGI is over 100 µM.

Regarding `Cc1c(Cl)ccc2c(=O)c3cccc(CC(=O)O)c3oc12`, the TGI was over 100 µM.

In turn, `Nc1ccccc1Nc1ccccc1C(=O)[O-].Nc1ccccc1Nc1ccccc1C(=O)[O-].[Cu+2]` registered a TGI of over 100 µM.

Take `CCOC(=O)C(OCC1CC=CCC1)Sc1ccccc1` (configuration not stated): the TGI is over 100 µM.

In the case of `O=C(NS(=O)(=O)Nc1ccc(Cl)cc1)OCc1ccc(Cl)cc1Cl`, the TGI was determined as 36 µM.
